The results in this text go back to ChEMBL document CHEMBL4196028, “Synthesis and biological evaluation of 20-epi-amino-20-deoxysalinomycin derivatives” (Eur J Med Chem, 2018).

The data set is described as follows: physchem. As to conditions: n-octanol/water.

The molecule `CC[C@@H](C(=O)[C@@H](C)[C@@H](O)[C@H](C)[C@@H]1O[C@@H]([C@@H](CC)C(=O)O)CC[C@@H]1C)[C@H]1O[C@]2(C=C[C@H](NC(=O)OCc3ccccc3)[C@]3(CC[C@@](C)([C@H]4CC[C@](O)(CC)[C@H](C)O4)O3)O2)[C@H](C)C[C@@H]1C` registered a lipophilicity (logP) of 1.77.

`CC[C@@H](C(=O)[C@@H](C)[C@@H](O)[C@H](C)[C@@H]1O[C@@H]([C@@H](CC)C(=O)O)CC[C@@H]1C)[C@H]1O[C@]2(C=C[C@@H](O)[C@]3(CC[C@@](C)([C@H]4CC[C@](O)(CC)[C@H](C)O4)O3)O2)[C@H](C)C[C@@H]1C` [SALINOMYCIN] gave a logP of 2.21.

`CC[C@@H](C(=O)[C@@H](C)[C@@H](O)[C@H](C)[C@@H]1O[C@@H]([C@@H](CC)C(=O)OCC[Si](C)(C)C)CC[C@@H]1C)[C@H]1O[C@]2(C=C[C@H](n3cc(COC(C(F)(F)F)(C(F)(F)F)C(F)(F)F)nn3)[C@]3(CC[C@@](C)([C@H]4CC[C@](O)(CC)[C@H](C)O4)O3)O2)[C@H](C)C[C@@H]1C` gave a logP of 1.95.
